Assay [1] in a line: Cytotoxicity against human MCF10A cells. In kind it is functional, cell-based. As to conditions: MCF-10A.
Assay [2] deals with T1, Fatty acid synthase (Homo sapiens, UniProt P49327). As to the kind of experiment: Inhibition of fatty acid synthase (unknown origin).
In assay [3] the target is T1, Fatty acid synthase. Nature of the assay: Inhibition of fatty acid synthase KR domain (unknown origin).
Assay [4] deals with A2780. As to the kind of experiment: Cytotoxicity against human A2780 cells. In kind it is functional, cell-based.
Assay [5] is described as follows: Cytotoxicity against human PC-3M-luc-C6 cells. In kind it is functional, cell-based.

T1 sequence (P49327 whole entry, the tested form may be a part): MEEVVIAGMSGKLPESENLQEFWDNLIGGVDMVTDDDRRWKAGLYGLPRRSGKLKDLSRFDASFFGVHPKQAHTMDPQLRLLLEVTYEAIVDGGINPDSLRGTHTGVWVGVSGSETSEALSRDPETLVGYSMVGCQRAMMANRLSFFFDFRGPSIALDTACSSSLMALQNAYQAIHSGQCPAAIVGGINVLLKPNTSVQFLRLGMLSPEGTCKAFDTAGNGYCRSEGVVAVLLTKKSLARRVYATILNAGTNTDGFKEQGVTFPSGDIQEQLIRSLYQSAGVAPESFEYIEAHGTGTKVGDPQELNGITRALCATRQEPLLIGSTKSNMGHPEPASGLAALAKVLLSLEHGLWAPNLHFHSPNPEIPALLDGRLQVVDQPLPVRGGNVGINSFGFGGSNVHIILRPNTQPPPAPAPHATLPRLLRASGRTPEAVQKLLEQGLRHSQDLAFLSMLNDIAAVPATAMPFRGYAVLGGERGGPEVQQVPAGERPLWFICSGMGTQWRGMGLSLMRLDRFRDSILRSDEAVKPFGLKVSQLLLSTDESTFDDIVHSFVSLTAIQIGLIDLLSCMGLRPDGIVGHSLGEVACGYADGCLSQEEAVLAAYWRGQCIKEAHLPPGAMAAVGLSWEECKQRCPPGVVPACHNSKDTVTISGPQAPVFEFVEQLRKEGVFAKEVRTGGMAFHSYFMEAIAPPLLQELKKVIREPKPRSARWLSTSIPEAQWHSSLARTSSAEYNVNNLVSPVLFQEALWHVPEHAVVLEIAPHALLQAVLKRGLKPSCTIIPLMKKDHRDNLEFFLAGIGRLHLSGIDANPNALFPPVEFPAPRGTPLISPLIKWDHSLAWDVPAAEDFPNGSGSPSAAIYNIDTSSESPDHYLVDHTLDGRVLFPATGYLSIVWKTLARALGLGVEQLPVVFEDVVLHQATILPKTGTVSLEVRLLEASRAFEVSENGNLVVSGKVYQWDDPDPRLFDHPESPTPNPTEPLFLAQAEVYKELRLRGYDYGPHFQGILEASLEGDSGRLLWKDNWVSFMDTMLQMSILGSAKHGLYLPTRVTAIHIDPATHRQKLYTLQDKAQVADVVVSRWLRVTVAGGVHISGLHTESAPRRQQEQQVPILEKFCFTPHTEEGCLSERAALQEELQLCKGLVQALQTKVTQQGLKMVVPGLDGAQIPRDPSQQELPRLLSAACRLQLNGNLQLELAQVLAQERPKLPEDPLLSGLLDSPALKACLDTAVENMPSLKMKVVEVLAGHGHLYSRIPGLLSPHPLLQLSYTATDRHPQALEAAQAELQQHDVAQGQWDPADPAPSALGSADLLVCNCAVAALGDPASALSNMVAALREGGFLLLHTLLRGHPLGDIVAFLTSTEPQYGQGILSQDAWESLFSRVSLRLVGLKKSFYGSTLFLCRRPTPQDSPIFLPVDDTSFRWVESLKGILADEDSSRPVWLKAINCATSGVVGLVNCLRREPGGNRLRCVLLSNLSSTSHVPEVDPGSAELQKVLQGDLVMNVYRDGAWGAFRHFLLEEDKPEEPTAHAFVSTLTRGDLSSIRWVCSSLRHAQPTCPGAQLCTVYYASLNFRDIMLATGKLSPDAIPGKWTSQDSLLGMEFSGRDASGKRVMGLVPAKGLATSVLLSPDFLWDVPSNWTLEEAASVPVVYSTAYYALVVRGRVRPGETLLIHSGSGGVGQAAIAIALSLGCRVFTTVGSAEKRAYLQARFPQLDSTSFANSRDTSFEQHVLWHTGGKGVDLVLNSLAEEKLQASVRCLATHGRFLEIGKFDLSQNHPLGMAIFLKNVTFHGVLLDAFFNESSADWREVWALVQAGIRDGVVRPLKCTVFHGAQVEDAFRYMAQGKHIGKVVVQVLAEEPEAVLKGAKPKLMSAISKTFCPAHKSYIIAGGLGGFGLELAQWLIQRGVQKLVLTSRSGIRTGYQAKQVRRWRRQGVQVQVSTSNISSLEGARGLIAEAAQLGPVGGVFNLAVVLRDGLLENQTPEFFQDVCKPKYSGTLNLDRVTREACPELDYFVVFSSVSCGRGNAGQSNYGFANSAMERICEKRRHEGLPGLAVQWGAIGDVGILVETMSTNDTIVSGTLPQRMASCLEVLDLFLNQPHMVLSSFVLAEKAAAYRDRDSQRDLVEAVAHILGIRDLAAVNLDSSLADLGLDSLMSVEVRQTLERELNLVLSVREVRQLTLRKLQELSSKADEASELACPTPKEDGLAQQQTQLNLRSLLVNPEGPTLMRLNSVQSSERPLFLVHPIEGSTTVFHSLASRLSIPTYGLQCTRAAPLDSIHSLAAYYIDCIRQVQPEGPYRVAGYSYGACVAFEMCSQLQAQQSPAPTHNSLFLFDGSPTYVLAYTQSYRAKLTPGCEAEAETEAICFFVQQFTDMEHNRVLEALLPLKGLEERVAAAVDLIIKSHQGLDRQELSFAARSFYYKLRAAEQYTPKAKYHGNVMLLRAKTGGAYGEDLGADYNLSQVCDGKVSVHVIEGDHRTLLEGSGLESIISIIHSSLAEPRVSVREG

A word on the IC50: it is the concentration needed to halve the response being measured. In assay [1], `Cc1cc(C)cc(N2C(=O)NC(=O)/C(=C\c3ccc(-c4ccccc4)o3)C2=O)c1` displayed an IC50 of 24.3 µM. On to `CN(C[C@@H]1CCN(C(=O)C2CC2)C1)C(=O)c1ccc(-c2ccc3[nH]ccc3c2)cc1F`, for which, in assay [2], the IC50 stood at 0.02 µM. As to `O=C(C1CC1)N1CC[C@@H](Cc2n[nH]c(=O)n2-c2ccc(-c3ccc4ccncc4c3)cc2F)C1`, half-maximal inhibition in assay [2] (IC50) required 0.003 µM. Compared with the last molecule, the IC50 is about 6.7-fold lower. Still for that read-out and setting: with `O=C1COC2(CCN(S(=O)(=O)c3ccc(-c4cccc5cnccc45)cc3)CC2)CN1C1CC1` the figure was 0.006 µM; with `N#Cc1ccc2cc(N3CCN(S(=O)(=O)N4CCC5(CC4)CN(C4CC4)C(=O)CO5)CC3)ccc2c1`, 0.01 µM. For `CC1(C)N=C(c2ccc(-c3c[nH]c4ccccc34)cc2)N(C[C@@H]2CCN(C(=O)C3CC3)C2)C1=O`, the IC50 in assay [3] was 0.041 µM; in assay [4], 0.003 µM; in assay [5] it was 0.008 µM. In the same order, the values of `Cc1ccc(C(=O)N2CCC(c3ccc4nncn4c3)CC2)cc1NC(=O)c1ccc(Cl)nc1` are 0.093 µM, 0.041 µM and 0.035 µM. Consider `O=C(C1CC1)N1CCC(Cn2cnnc2-c2ccc(-c3ccc4[nH]ncc4c3)cc2)C1` (single isomer, unassigned), for which it took 0.013 µM to reach half-maximal inhibition in assay [2] (IC50). In other words, the double-digit nanomolar range.

For the origin of these results see ChEMBL document CHEMBL3621185, “Progress in the development of fatty acid synthase inhibitors as anticancer targets” (Bioorg Med Chem Lett, 2015).
